Assay results published in patent US20210267203A1, “PESTICIDALLY ACTIVE AZOLE-AMIDE COMPOUNDS” (SYNGENTA PARTICIPATIONS AG, priority 2018, published 2021).

Tests used:
Assay type in all cases: in vivo
[1] = system: Diabrotica Balteata (Corn Root Worm); experiment: Example B1: Diabrotica balteata (corn root worm), maize sprouts sprayed, L2 larvae; conditions: 96 h, application rate 200 ppm, 4 days after infestation, read-out: effect in at least one of the two categories (mortality or growth inhibition)
Summary of the method: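 Maize sprouts on agar sprayed with aqueous dilutions of 10,000 ppm DMSO stocks, dried, then infested with 6–10 L2 larvae per well. Mortality and growth inhibition scored against untreated samples 4 days after infestation; rates of 200 ppm.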

[2] = system: Euschistus heros (Neotropical Brown Stink Bug); experiment: Example B2: Euschistus heros (neotropical brown stink bug), soybean leaves sprayed, N2 nymphs; conditions: 120 h, application rate 200 ppm, 5 days after infestation, read-out: effect in at least one of the two categories (mortality or growth inhibition)
Summary of the method: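 Soybean leaves on agar sprayed with aqueous test solutions made from 10,000 ppm DMSO stocks, dried, then infested with N2 nymphs. Mortality and growth inhibition scored versus untreated samples 5 days after infestation; activity threshold at 200 ppm.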

[3] = system: Chilo suppressalis (Striped Rice Stemborer); experiment: Example B4: Chilo suppressalis (striped rice stemborer), artificial diet, L2 larvae; conditions: 144 h, application rate 200 ppm, 6 days after infestation
Summary of the method: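 L2 larvae (6-8 per well) placed on artificial diet treated with aqueous test solutions prepared from 10,000 ppm DMSO stocks, after drying. Mortality, anti-feeding and growth inhibition scored against untreated samples 6 days after infestation; control means at least one category exceeds untreated.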

[4] = system: Plutella xylostella (Diamond Back Moth); experiment: Example B5: Plutella xylostella (diamond back moth), artificial diet, 24-well, eggs; conditions: 192 h, application rate 200 ppm, 8 days after infestation, read-out: effect in at least one of the two categories (mortality or growth inhibition)
Summary of the method: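 Artificial diet in 24-well plates treated with aqueous dilutions of 10,000 ppm DMSO stocks, dried, then infested with Plutella eggs. Mortality and growth inhibition scored against untreated samples 8 days after infestation; activity rated at 200 ppm application rate.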

[5] = system: Myzus persicae (Green Peach Aphid); experiment: Example B8: Myzus persicae (green peach aphid), intrinsic activity; conditions: 120 h, test rate 12 ppm, sucrose solution, 24-well, 5 days after infestation
Summary of the method: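 Compounds diluted from 10,000 ppm DMSO stock were mixed with sucrose solution under stretched Parafilm in a sachet feeding setup, with aphid-infested pea seedlings placed on the membrane. Mortality was scored 5 days after infestation.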

[6] = system: Spodoptera littoralis (Egyptian Cotton Leaf Worm); experiment: Example B9: Spodoptera littoralis (Egyptian cotton leaf worm), cotton leaf discs sprayed, L1 larvae; conditions: foliar, 72 h, application rate 200 ppm, 3 days after infestation
Summary of the method: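 Leaf discs on agar sprayed with aqueous dilutions from 10,000 ppm DMSO stock, dried, then infested with five L1 larvae. Mortality, anti-feeding and growth inhibition scored against untreated samples 3 days after infestation; control counted when any category exceeds untreated.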

[7] = system: Spodoptera littoralis (Egyptian Cotton Leaf Worm); experiment: Example B10: Spodoptera littoralis (Egyptian cotton leaf worm), uptake by lettuce roots from agar, eggs; conditions: 144 h, test rate 12.5 ppm, lettuce root uptake, 6 days after infestation, read-out: effect in at least one of the three categories (mortality, anti-feeding, or growth inhibition)
Text: Example B10: Spodoptera littoralis (Egyptian Cotton Leaf Worm)
Test compounds were applied by pipette from 10,000 ppm DMSO stock solutions into 24-well plates and mixed with agar. Lettuce seeds were placed onto the agar and the multi well plate was closed by another plate which contained also agar. After 7 days the compound was absorbed by the roots and the lettuce grew into the lid plate. The lettuce leaves were then cut off into the lid plate. Spodoptera eggs were pipetted through a plastic stencil onto a humid gel blotting paper and the lid plate was closed with it. The samples were assessed for mortality, anti-feedant effect and growth inhibition in comparison to untreated samples 6 days after infestation.
The following compounds gave an effect of at least 80% in at least one of the three categories (mortality, anti-feeding, or growth inhibition) at a test rate of 12.5 ppm: […]

[8] = system: Thrips tabaci (Onion Thrips); experiment: Example B12: Thrips tabaci (onion thrips), feeding/contact activity; conditions: 144 h, application rate 200 ppm, mixed ages, 6 days after infestation
Method: Example B12: Thrips tabaci (Onion Thrips) Feeding/Contact Activity
Sunflower leaf discs were placed on agar in 24-well microtiter plates and sprayed with aqueous test solutions prepared from 10,000 ppm DMSO stock solutions. After drying the leaf discs were infested with a thrips population of mixed ages. The samples were assessed for mortality 6 days after infestation.

[9] = system: Myzus persicae (Green Peach Aphid); experiment: Example B13: activity against Myzus persicae (green peach aphid), 96-well sucrose solution; conditions: 120 h, application rate 50 ppm, 5 days after infestation
Summary of the method: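 Compounds, from 10,000 ppm DMSO stocks, mixed into sucrose solution in wells under stretched Parafilm, with aphids placed on the membrane in an inverted feeding setup. Mortality scored 5 days after infestation.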

[10] = system: Plutella xylostella (Diamondback Moth); experiment: Example B14: activity against Plutella xylostella (diamondback moth), 96-well artificial diet; conditions: 216 h, application rate 500 ppm, 9 days after infestation
Summary of the method: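 Diet in 96-well plates was treated with aqueous dilutions of 10,000 ppm DMSO stocks, dried, and infested with 30 eggs per well via a netted lid; hatching L1 larvae fed on the diet. Mortality scored 9 days after infestation.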

CC(NC(=O)c1cc(C2CC2C(F)(F)F)cc(C(F)(F)F)c1)c1ncnn1-c1ncccn1 (stereo not drawn) [P25, N-[1-(2-pyrimidin-2-yl-1,2,4-triazol-3-yl)ethyl]-3-(trifluoromethyl)-5-[2-(trifluoromethyl)cyclopropyl]benzamide]
≥ 80%: percent effect (mortality or growth inhibition) at 200 ppm [1] | percent effect (mortality or growth inhibition) at 200 ppm [2] | percent control (mortality, anti-feedant effect or growth inhibition) at 200 ppm [3] | percent effect (mortality or growth inhibition) at 200 ppm [4] | mortality at 12 ppm [5] | percent control (mortality, anti-feedant effect or growth inhibition) at 200 ppm [6] | percent effect (mortality, anti-feeding or growth inhibition) at 12.5 ppm [7] | mortality at 200 ppm [8] | mortality at 50 ppm [9] | mortality at 500 ppm [10]

CC(c1ncnn1-c1ncccn1)N(CC1CC1)C(=O)c1cc(C(F)(F)F)nc(C2(C#N)CC2)c1 (stereo not drawn) [P32, 2-(1-cyanocyclopropyl)-N-(cyclopropylmethyl)-N-[1-(2-pyrimidin-2-yl-1,2,4-triazol-3-yl)ethyl]-6-(trifluoromethyl)pyridine-4-carboxamide]
≥ 80%: percent effect (mortality or growth inhibition) at 200 ppm [1] | percent effect (mortality or growth inhibition) at 200 ppm [2] | percent control (mortality, anti-feedant effect or growth inhibition) at 200 ppm [3] | percent effect (mortality or growth inhibition) at 200 ppm [4] | percent control (mortality, anti-feedant effect or growth inhibition) at 200 ppm [6] | percent effect (mortality, anti-feeding or growth inhibition) at 12.5 ppm [7] | mortality at 200 ppm [8] | mortality at 50 ppm [9] | mortality at 500 ppm [10]

CC(c1ncnn1-c1ncccn1)N(CC1CC1)C(=O)c1cc(C(F)(F)F)cc(S(=O)(=O)C(F)F)c1 (stereo not drawn) [P30, N-(cyclopropylmethyl)-3-(difluoromethylsulfonyl)-N-[1-(2-pyrimidin-2-yl-1,2,4-triazol-3-yl)ethyl]-5-(trifluoromethyl)benzamide]
≥ 80%: percent effect (mortality or growth inhibition) at 200 ppm [1] | percent effect (mortality or growth inhibition) at 200 ppm [2] | percent effect (mortality or growth inhibition) at 200 ppm [4] | mortality at 12 ppm [5] | mortality at 200 ppm [8] | mortality at 50 ppm [9] | mortality at 500 ppm [10]

CC(c1ncnn1-c1ncccn1)N(CC1CC1)C(=O)c1cc(C(F)(F)F)cc(C(F)(F)C2CC2)c1 (stereo not drawn) [P49, 3-[cyclopropyl(difluoro)methyl]-N-(cyclopropylmethyl)-N-[1-(2-pyrimidin-2-yl-1,2,4-triazol-3-yl)ethyl]-5-(trifluoromethyl)benzamide]
≥ 80%: percent effect (mortality or growth inhibition) at 200 ppm [1] | percent effect (mortality or growth inhibition) at 200 ppm [2] | percent control (mortality, anti-feedant effect or growth inhibition) at 200 ppm [3] | percent effect (mortality or growth inhibition) at 200 ppm [4] | mortality at 12 ppm [5] | percent control (mortality, anti-feedant effect or growth inhibition) at 200 ppm [6] | percent effect (mortality, anti-feeding or growth inhibition) at 12.5 ppm [7] | mortality at 200 ppm [8] | mortality at 50 ppm [9] | mortality at 500 ppm [10]

CC(c1ncnn1-c1ncccn1)N(CC1CC1)C(=O)c1cc(Cl)cc(C2(C#N)CC2)n1 (stereo not drawn) [P29, 4-chloro-6-(1-cyanocyclopropyl)-N-(cyclopropylmethyl)-N-[1-(2-pyrimidin-2-yl-1,2,4-triazol-3-yl)ethyl]pyridine-2-carboxamide]
≥ 80%: percent effect (mortality or growth inhibition) at 200 ppm [1] | percent effect (mortality or growth inhibition) at 200 ppm [2] | percent effect (mortality or growth inhibition) at 200 ppm [4] | mortality at 12 ppm [5] | mortality at 200 ppm [8] | mortality at 50 ppm [9] | mortality at 500 ppm [10]

CC(c1ncnn1-c1ncccn1)N(CC1CC1)C(=O)c1cc(C2CC2)cc(C(F)(F)F)c1 (stereo not drawn) [P52, 3-cyclopropyl-N-(cyclopropylmethyl)-N-[1-(2-pyrimidin-2-yl-1,2,4-triazol-3-yl)ethyl]-5-(trifluoromethyl)benzamide]
≥ 80%: percent effect (mortality or growth inhibition) at 200 ppm [1] | percent effect (mortality or growth inhibition) at 200 ppm [2] | percent effect (mortality or growth inhibition) at 200 ppm [4] | mortality at 12 ppm [5] | percent control (mortality, anti-feedant effect or growth inhibition) at 200 ppm [6] | mortality at 200 ppm [8] | mortality at 50 ppm [9] | mortality at 500 ppm [10]
